The results in this text go back to EPA's ToxRefDB 2.

Each structure is given as a SMILES string.

Series [1] has as its system rat. The settings on record: Neurotoxicity screening battery; fischer; Inhalation; Whole-Body; dose end: 24 week; group: cannot be grouped; systemic / in life observation / body weight / body weight.
The subject of series [2] is rat. To be noted: Multigenerational reproductive toxicity study; fischer; Inhalation; Whole-Body; dose end: 2 generation; group: parental; systemic / in life observation / body weight / body weight.
Series [3] relates to rat. The settings on record: Prenatal developmental toxicity study, fischer, Inhalation, Whole-Body, dose end: 15 GD.
Series [4] concerns rat. The settings on record: Combined chronic toxicity/carcinogenicity, wistar, Inhalation, Whole-Body, dose end: 125 week, group: systemic.
Series [5] concerns dog. To be noted: Subchronic oral toxicity in nonrodent, beagle, Capsule, dose end: 90 day, group: systemic.
The test system of series [6] is rat. To be noted: Subchronic oral toxicity in rodents, other, Feed, dose end: 90 day, group: systemic.
For series [7], the system named is rat. To be noted: Prenatal developmental toxicity study; wistar; Oral; Gavage/Intubation; dose end: 18 GD; group: developmental; systemic / organ weight / epididymis / absolute + systemic / organ weight / liver / absolute.
The test system of series [8] is rat. The settings on record: Prenatal developmental toxicity study; wistar; Oral; Gavage/Intubation; dose end: 18 GD; group: developmental; systemic / organ weight / epididymis / absolute + systemic / organ weight / liver / absolute. The source holds these as a separate data set.
In series [9] the test system is rat. To be noted: Subchronic oral toxicity in rodents, sprague dawley, Feed, dose end: 90 day, group: systemic.
Series [10] concerns dog. To be noted: Chronic toxicity; beagle; Oral; Feed; dose end: 12 month; group: systemic; systemic / clinical chemistry / beta globulin / beta globulin + systemic / hematology / erythrocyte (rbc) count differential / erythrocyte (….
Series [11] relates to dog. The settings on record: Subchronic oral toxicity in nonrodent, beagle, Feed, dose end: 90 day, group: systemic.
The subject of series [12] is mouse. The settings on record: Carcinogenicity; cd1; Oral; Feed; dose end: 79 week; group: systemic; systemic / hematology / leukocyte (wbc) count differential / leukocyte (wbc) + systemic / hematology / lymphocyte / lymphocyte + systemic / ….
Series [13] relates to rat. The settings on record: Multigenerational reproductive toxicity study; long evans; Oral; Gavage/Intubation; dose end: 1 generation; group: offspring; systemic / organ weight / vagina / absolute + systemic / organ weight / vagina / relative to body weight.
The test system of series [14] is mouse. To be noted: Chronic toxicity, b6c3f1, Oral, Water, dose end: 104 week, group: systemic.
In series [15] the test system is rat. The settings on record: Subchronic oral toxicity in rodents, fischer, Water, dose end: 25 week, group: systemic, systemic / in life observation / body weight / body weight gain.
Series [16] concerns rat. To be noted: Chronic toxicity; fischer; Oral; Water; dose end: 104 week; group: systemic; systemic / pathology microscopic / mammary gland / fibroadenoma.
The test system of series [17] is rat. The settings on record: Sub-acute repeat dose toxicity; wistar; Injection; Intravenous; dose end: 28 day; group: systemic; systemic / clinical chemistry / calcium / calcium.
The test system of series [18] is mouse. The settings on record: Subchronic oral toxicity in rodents, b6c3f1, Water, dose end: 13 week, group: systemic.
Series [19] relates to mouse. The settings on record: Combined chronic toxicity/carcinogenicity; other; Oral; Feed; dose end: 365 day; group: systemic; systemic / pathology microscopic / blood / lymphoma malignant.
For series [20], the system named is rat. The settings on record: Combined chronic toxicity/carcinogenicity; fischer; Oral; Feed; dose end: 365 day; group: systemic; systemic / in life observation / body weight / body weight.
In series [21] the test system is mouse. To be noted: Carcinogenicity, b6c3f1, Oral, Feed, dose end: 24 month.
In series [22] the test system is rat. To be noted: Prenatal developmental toxicity study; sprague dawley; Oral; Feed; dose end: 15 GD; group: maternal; systemic / in life observation / body weight / body weight gain + systemic / in life observation / food consumption / food consumption.
Series [23] has as its system rat. To be noted: Prenatal developmental toxicity study, sprague dawley, Oral, Gavage/Intubation, dose end: 15 GD.
[24] abbreviates: group: developmental, developmental / developmental malformation / bone / supernumerary.
Where [25] appears, read: group: maternal, systemic / in life observation / body weight / body weight gain + systemic / in life observation / food consumption / food consumption.
Where [26] appears, read: group: maternal, systemic / in life observation / body weight / body weight gain + systemic / in life observation / food consumption / food consumption + ….
[27] abbreviates: systemic / in life observation / body weight / body weight.
[28] abbreviates: systemic / clinical chemistry / [other] / [other] + systemic / clinical chemistry / bilirubin / total bilirubin + systemic / clinical ….
The mark [29] stands for this setting: systemic / in life observation / body weight / body weight gain.
Setting [30] is: systemic / in life observation / body weight / body weight gain + systemic / pathology microscopic / kidney / casts + systemic / pathology ….
Setting [31] is: systemic / in life observation / body weight / body weight gain + systemic / organ weight / spleen / relative to body weight + systemic / ….
Setting [32] is: systemic / pathology microscopic / blood / lymphoma malignant.
Where [33] appears, read: systemic / pathology microscopic / blood / lymphoma malignant + systemic / in life observation / body weight / body weight.
The mark [34] stands for this setting: systemic / in life observation / body weight / body weight gain + systemic / in life observation / mortality / mortality + systemic / ….
Setting [35] is: group: cholinesterase, cholinesterase / cholinesterase / cholinesterase / brain cholinesterase (che).
Where [36] appears, read: group: cholinesterase, cholinesterase / cholinesterase / cholinesterase / brain cholinesterase (che) + cholinesterase / cholinesterase / cholinesterase / plasma ….
The mark [37] stands for this setting: group: systemic, systemic / in life observation / clinical signs / convulsions + systemic / pathology gross / lymph node / enlarged + systemic / pathology ….
Where [38] appears, read: group: developmental, systemic / in life observation / body weight / fetal weight.

For `CC1CO1` (centres undefined) [1,2-Propylene oxide], the LEL with rat [1] is 100 ppm; in the series with rat [2], 30 ppm; with rat [3] (setting [24]), 500 ppm; in the series on rat [3] (setting [26]), 500 ppm; with rat [4] (setting [27]), 30 ppm. Besides, the LOAEL (as a rule, the lowest tested level that showed an adverse finding) in the series on rat [1] was > 300 ppm; in the series with rat [2] it was > 300 ppm; with rat [3] (setting [24]), 500 ppm; in the series on rat [3] (setting [25]) it was 500 ppm; with rat [4] (systemic / pathology microscopic / nose / [other] + systemic / pathology microscopic / nose / hyperplasia) it was 100 ppm. Besides, the NEL was 30 ppm with rat [1]; < 30 ppm with rat [2]; 300 ppm with rat [3] (setting [24]); 300 ppm in the series with rat [3] (setting [26]); < 30 ppm in the series with rat [4] (setting [27]). Further, the NOAEL (as a rule, the highest dose or exposure tested at which no adverse effect was seen) in the series on rat [1] was ≥ 300 ppm; in the series with rat [2], ≥ 300 ppm; with rat [3] (setting [24]) it was 300 ppm; in the series on rat [3] (setting [26]), 300 ppm; in the series with rat [4] (systemic / pathology microscopic / nose / [other] + systemic / pathology microscopic / nose / hyperplasia + systemic / pathology microscopic…) it was 30 ppm.
For the molecule `CCc1occc(=O)c1O` [2-Ethyl-3-hydroxy-4H-pyran-4-one], the LOAEL in the series with dog [5] (setting [28]) was > 500 mg/kg/day; with rat [6] (setting [30]), > 1000 mg/kg/day. For the same molecule, the NOAEL is ≥ 500 mg/kg/day in the series on dog [5] (setting [28]) and ≥ 1000 mg/kg/day with rat [6] (setting [30]). Further, the NEL in the series with dog [5] (systemic / clinical chemistry / bilirubin / total bilirubin + systemic / hematology / anemia / anemia - hemolytic + systemic / pathology …) was 125 mg/kg/day; in the series with rat [6] (setting [30]) it was 250 mg/kg/day. In addition, the LEL with dog [5] (systemic / pathology microscopic / liver / hemosiderosis) was 250 mg/kg/day; with rat [6] (setting [29]), 500 mg/kg/day.
On to `CCCCCCCCCc1ccc(O)cc1` [4-Nonylphenol], for which, in the series with rat [7], the LEL turned out to be 15 mg/kg/day, the LOAEL was > 75 mg/kg/day, the NEL was found to be 3 mg/kg/day and the NOAEL was ≥ 75 mg/kg/day. In addition, in the series on rat [8], the LEL was found to be 15 mg/kg/day, the LOAEL was > 75 mg/kg/day, the NEL was 3 mg/kg/day and the no-observed-adverse-effect level (NOAEL) is ≥ 75 mg/kg/day.
Regarding `COc1ccc(-c2ccccc2)cc1NNC(=O)OC(C)C` [Bifenazate], the LEL turned out to be 13.8 mg/kg/day in the series with rat [9] (systemic / clinical chemistry / protein / protein), 8.95 mg/kg/day in the series on dog [10], 0.9 mg/kg/day with dog [11] (setting [29]) and 15.4 mg/kg/day with mouse [12]. In addition, the NEL in the series with rat [9] (systemic / clinical chemistry / protein / protein + systemic / hematology / erythrocyte (rbc) count differential / erythrocyte (rbc) + …) was 2.7 mg/kg/day; with dog [10], 1.01 mg/kg/day; in the series with dog [11] (setting [29]), < 0.9 mg/kg/day; with mouse [12], 1.5 mg/kg/day. For the same molecule, the LOAEL in the series with rat [9] (setting [31]) amounted to 16.3 mg/kg/day; with dog [10] it was 8.95 mg/kg/day; in the series with dog [11] (systemic / hematology / mean corpuscular (cell) volume (mcv) / mean corpuscular (cell) volume (mcv) + systemic / hematology / mean …), 10.4 mg/kg/day; with mouse [12], 15.4 mg/kg/day. Besides, the NOAEL with rat [9] (setting [31]) was 3.2 mg/kg/day; with dog [10], 1.01 mg/kg/day; with dog [11] (systemic / in life observation / body weight / body weight gain + systemic / hematology / mean corpuscular (cell) volume (mcv) / mean …) it was 0.9 mg/kg/day; in the series with mouse [12], 1.5 mg/kg/day.
With `[O][Cl+][O-]` [Chlorine dioxide], in the series on rat [13], the LEL was 10 mg/kg/day, the LOAEL is > 10 mg/kg/day, the NEL was 5 mg/kg/day and the NOAEL was ≥ 10 mg/kg/day.
Regarding `O=C1CCCCC1` [Cyclohexanone], the LEL in the series with mouse [14] (setting [32]) was determined as 867 mg/kg/day; in the series with rat [15] it was 325 mg/kg/day; in the series on rat [16] it was 325 mg/kg/day; with rat [17], 100 mg/kg/day; with mouse [18] (setting [29]) it was 3330 mg/kg/day. Besides, the NEL with mouse [14] (setting [32]) was < 867 mg/kg/day; in the series with rat [15], 235 mg/kg/day; in the series with rat [16] it was 165 mg/kg/day; in the series on rat [17], 50 mg/kg/day; in the series with mouse [18] (setting [34]) it was 1730 mg/kg/day. Moreover, the lowest observed adverse effect level (LOAEL) is > 3330 mg/kg/day in the series with mouse [14] (setting [33]); > 325 mg/kg/day with rat [15]; > 325 mg/kg/day in the series on rat [16]; > 100 mg/kg/day with rat [17]; > 6270 mg/kg/day with mouse [18] (setting [34]). Besides, the NOAEL with mouse [14] (setting [33]) is ≥ 3330 mg/kg/day; in the series on rat [15], ≥ 325 mg/kg/day; in the series on rat [16], ≥ 325 mg/kg/day; in the series on rat [17], ≥ 100 mg/kg/day; in the series with mouse [18] (setting [34]), ≥ 6270 mg/kg/day.
As to `CCCCCC(N)=O` [Hexanamide], in the series on mouse [19], the LEL amounted to 1500 mg/kg/day, the lowest observed adverse effect level (LOAEL) is > 1500 mg/kg/day, the NEL is < 1500 mg/kg/day and the NOAEL was ≥ 1500 mg/kg/day. In the series with rat [20], the LEL stood at 750 mg/kg/day, the LOAEL was > 750 mg/kg/day, the NEL was < 750 mg/kg/day and the NOAEL is ≥ 750 mg/kg/day.
For `COP(=S)(OC)SCN1C(=O)c2ccccc2C1=O` [Phosmet], the LOAEL in the series with mouse [21] (setting [35]) was 1 mg/kg/day; in the series on mouse [21] (group: systemic, systemic / in life observation / clinical signs / convulsions) it was 4 mg/kg/day; with rat [22] it was > 29 mg/kg/day; with rat [23] (setting [38]) it was > 30 mg/kg/day; in the series with rat [23] (setting [26]) it was > 30 mg/kg/day. Also, the NOAEL was < 1 mg/kg/day in the series on mouse [21] (setting [35]); 1 mg/kg/day in the series with mouse [21] (group: systemic, systemic / in life observation / clinical signs / convulsions + systemic / pathology microscopic / liver / hepatocellular adenoma + systemic…); ≥ 29 mg/kg/day with rat [22]; ≥ 30 mg/kg/day with rat [23] (setting [38]); ≥ 30 mg/kg/day in the series with rat [23] (setting [26]). In addition, the LEL in the series with mouse [21] (setting [36]) stood at 1 mg/kg/day; in the series on mouse [21] (setting [37]) it was 1 mg/kg/day; with rat [22], 27 mg/kg/day; in the series on rat [23] (setting [38]) it was 5 mg/kg/day; in the series with rat [23] (setting [25]), 20 mg/kg/day. Besides, the NEL with mouse [21] (setting [36]) was < 1 mg/kg/day; in the series on mouse [21] (setting [37]), < 1 mg/kg/day; in the series on rat [22] it was 22 mg/kg/day; in the series with rat [23] (setting [38]), < 5 mg/kg/day; with rat [23] (setting [26]) it was 10 mg/kg/day.
